Data taken from patent US12678453B2, “Aerosolized formulations of HIV protease inhibitors for the treatment of airway reflux” (The Medical College of Wisconsin, Inc., priority 2020, dated 2026).
Square brackets hold non-standard residues; d marks the D form. Peptide text beside a SMILES is read from it. * marks the point of attachment. Sta = CC(C)C[C@H](N)[C@@H](O)CC(=O)O; Isovaleryl = CC(C)CC(=O)*

Legend:
[1] = cited from earlier work
[2] = tested on: mouse model of laryngopharyngeal reflux (LPR); test: in vivo mouse model of LPR (laryngeal wounding and pepsin instillation, H&E histology); details: for laryngeal histology (H&E) / pepsin-mediated laryngeal injury: pepsin pH7 group; for laryngeal histology (H&E): solvent (saline/PBS pH7) group
Source text: An in vivo mouse model of direct application of pepsin, to mimic laryngeal exposure during LPR, and treatment with select HIV protease inhibitors by either gavage (oral systemic delivery) or aerosolized delivery (inhaled local delivery) was used. […] Each group contained 3 mice. Six-week-old female Jackson A/J mice (Jackson Laboratory, Bar Harbor, ME), weighed one day after arrival, then weekly, on Mondays thereafter.
Avertin was the preferred anesthetic for the brief application time needed as it has a rapid induction, produces a short surgical anesthesia, and has a rapid recovery. […] For this experiment, isoflurane inhalation was used. The isoflurane, self-scavenging machine, was operated at 3% isoflurane with 2.5 liters of air per minute (LPM). The induction chamber was charged for 3-5 minutes prior to the mice being anesthetized. Mice were placed in the induction chamber for 3-5 minutes prior to any wounding or administrations. Anesthesia records were kept according to IACUC policy.
Animals secured by a copper wire attached to the board from which the mice were suspended by their upper teeth. This caused the lower jaw to fall open naturally, exposing the larynx and permitting visualization with a Zeiss microscope at 6× magnification. […] Under direct visualization, the subglottis, glottis, and supraglottis regions were superficially scratched interiorly from distal to proximal as the needle was pulled out gently, making a mild abrasion. This procedure was performed twice, with one week between woundings.
To examine the effect pepsin at acid and nonacid pH, animals were treated for 2 weeks with laryngeal instillation of pepsin (20 μL at 0.3 mg/ml, pH 7.0 or pH 4.0) at 24, 48, and 72 h post wounding procedure. During weeks 3 and 4, animals were treated with laryngeal instillation for 3 days per week. Mice were sacrificed and samples collected on Friday of the fourth week.
The twelve mice in the aerosol groups were condition in the nose-only exposure chamber (Intox) on three separate days by exposure to dry air for 10 min. Beginning the Monday (day 1) of the next week, aerosols and gavages were performed on the mice Monday through Friday (5 exposures). The aerosols and gavages continued Monday-Friday for three more weeks, with the final week consisting of 4 total exposure days, Monday-Thursday, (19 total) with the mice sacrificed and tissues harvested on Friday. Each mouse received two woundings and 12 solvent or pepsin administrations. Wounding and intratracheal administrations were concurrent with the aerosol and gavage treatments. The first wounding was performed on day 2, followed by solvent or pepsin administrations on days 3, 4, and 5. The second wounding was performed on day 8, followed by solvent or pepsin administrations on days 9, 10, and 11. In weeks 3 and 4, mice received solvent or pepsin administrations on days 16, 17, and 18 and days 23, 24, and 25. Day 26 was sacrifice and tissue harvest.
A 10 mL suspension of drug in ethanol was placed in the baffle, such that the concentration would remain constant at the equilibrium solubility. Droplets of ethanol containing dissolve drug were generated by an ultrasonic atomizer (nominal frequency 1.7 MHz) entrained by air at a flow rate of 0.5 LPM with a custom-built glass baffle (University of Minnesota, Department of Chemistry Glass Shop). The aerosol cloud was then passed through a cylindrical drying column containing an annular ring of charcoal. The ethanol is removed and the emanating dry aerosol particles of pure drug were then directed into the exposure chamber.
The mass deposited on the filters in a fixed collection time was measured gravimetrically, and with the collection time, allowed calculation of the total output rate (mg/min). The aerosol concentration (mass/volume of air) was calculated by dividing the total output rate by the air flow rate (0.5 LPM).

[3] = preliminary 12-day toxicity study of aerosolized fosamprenavir; type: in vivo, mice; details: 12-day exposure
Description: In the following Example, the inventors used a small-scale powder disperser (SSPD) to aerosolize Fosamprenavir powder, and monitored particle size distribution by an Optical Particle Sizer (OPS). The SSPD inhales the powder through a venturi aspirator, which is then sampled through OPS at 1 L/min of flow (FIG. 11).
A preliminary 12-day toxicity study was conducted in mice. […] This was the only animal affected, across 15 treated mice, so this is suspected to be unrelated to the fosamprenavir treatment.

[4] = tested on: 14 relevant biomarkers for inflammation and toxicity; test: Luminex assay of bronchiolar lavage samples; type: in vivo, mice; details: control versus lowest dose
Source text: Bronchiolar lavage samples were collected from all mice and a Luminex assay was used to measure 14 relevant biomarkers for inflammation and toxicity.

[5] = known clinical profile; cited from earlier work
[6] = cited from earlier work; remark: listed apart in the source
pepsin = details: Roberts 2003; cited from earlier work

| Structure (SMILES) | pharmacokinetics ([1]; in mice) | oral bioavailability ([1]; prodrug compared with amprenavir) | laryngeal histology (H&E) / pepsin-mediated laryngeal injury ([2]; aerosol) | laryngeal histology (H&E) ([2]; aerosol) | laryngeal histology (H&E) / pepsin-mediated laryngeal injury ([2]; gavage) | laryngeal histology (H&E) ([2]; gavage) | pepsin-mediated laryngeal injury (multi-layered, reactive epithelia and cell apoptosis) ([2]; inhalation, 1 mg/kg/d) | pathology in nasal cavity, larynx, esophagus, trachea, lung, liver, and kidney tissues ([3]; mice) | heart pathology ([3]; one of 15 treated mice, suspected to be unrelated to treatment) | IL-6 in bronchiolar lavage [4] | side effects / tolerability [5] | water solubility [6] | affinity for pepsin (pepsin) |
| --- | --- | --- | --- | --- | --- | --- | --- | --- | --- | --- | --- | --- | --- |
| CC(C)CN(C[C@@H](OP(=O)(O)O)[C@H](Cc1ccccc1)NC(=O)O[C@H]1CCOC1)S(=O)(=O)c1ccc(N)cc1 [fosamprenavir, [(3 S)-oxolan-3-yl]N-[(2S,3R)-4-[(4-aminophenyl)sulfonyl-(2-methylpropyl)amino]-1-phenyl-3-phosphonooxybutan-2-yl]carbamate] | excellent pharmacokinetics | improved oral bioavailability | normal histology | normal histology | normal histology | normal histology | prevented pepsin mediated laryngeal injury | No pathology was observed | significant inflammation | showed significance | favorable tolerability profile | – | – |
| CC(C)CC(=O)N[C@H](C(=O)N[C@H](C(=O)N[C@@H](CC(C)C)[C@@H](O)CC(=O)N[C@@H](C)C(=O)N[C@@H](CC(C)C)[C@@H](O)CC(=O)O)C(C)C)C(C)C [pepstatin] (Isovaleryl-VV[Sta]A[Sta]-OH) | – | – | – | – | – | – | – | – | – | – | – | poor water-solubility | subnanomolar |
